From ChEMBL document CHEMBL3758081, “Synthesis and biological evaluation of new naphthalene substituted thiosemicarbazone derivatives as potent antifungal and anticancer agents” (Eur J Med Chem, 2016)
In brackets after ≈: the same amount, converted by molar mass.

How the values were obtained:
[1] = tested on: Fusarium solani; test: Antifungal activity against Fusarium solani NRRL-13414 after 72 hrs by broth microdilution method; format: functional; settings: NRRL-13414, 72 h
[2] = tested on: Salmonella typhimurium; test: Genotoxicity in Salmonella typhimurium TA1535/pSK1002 assessed as growth factor at 0.156 mg/ml after 2 hrs by umuC assay in presence of Sprague-Dawley rat liver S9 fraction; format: toxicity, organism-based; settings: salmonella enterica subsp. enterica serovar typhimurium, s9, 2 h
[3] = tested on: Salmonella typhimurium; test: Genotoxicity in Salmonella typhimurium TA1535/pSK1002 assessed as growth factor at 0.3125 mg/ml after 2 hrs by umuC assay in presence of Sprague-Dawley rat liver S9 fraction; format: toxicity, organism-based; settings: salmonella enterica subsp. enterica serovar typhimurium, s9, 2 h
[4] = tested on: Salmonella typhimurium; test: Genotoxicity in Salmonella typhimurium TA1535/pSK1002 assessed as growth factor at 0.625 mg/ml after 2 hrs by umuC assay in presence of Sprague-Dawley rat liver S9 fraction; format: toxicity, organism-based; settings: salmonella enterica subsp. enterica serovar typhimurium, s9, 2 h
[5] = tested on: Salmonella typhimurium; test: Genotoxicity in Salmonella typhimurium TA1535/pSK1002 assessed as growth factor at 2.5 mg/ml after 2 hrs by umuC assay in absence of Sprague-Dawley rat liver S9 fraction; format: toxicity, organism-based; settings: salmonella enterica subsp. enterica serovar typhimurium
[6] = tested on: Salmonella typhimurium; test: Genotoxicity in Salmonella typhimurium TA1535/pSK1002 assessed as growth factor at 5 mg/ml after 2 hrs by umuC assay in absence of Sprague-Dawley rat liver S9 fraction; format: toxicity, organism-based; settings: salmonella enterica subsp. enterica serovar typhimurium
[7] = Genotoxicity in Salmonella typhimurium TA1535/pSK1002 assessed as induction ratio at 0.156 mg/ml after 2 hrs by umuC assay in presence of Sprague-Dawley rat liver S9 fraction; format: toxicity, organism-based; settings: salmonella enterica subsp. enterica serovar typhimurium
[8] = Genotoxicity in Salmonella typhimurium TA1535/pSK1002 assessed as induction ratio at 0.3125 mg/ml after 2 hrs by umuC assay in presence of Sprague-Dawley rat liver S9 fraction; format: toxicity, organism-based; settings: salmonella enterica subsp. enterica serovar typhimurium
[9] = Genotoxicity in Salmonella typhimurium TA1535/pSK1002 assessed as induction ratio at 0.625 mg/ml after 2 hrs by umuC assay in presence of Sprague-Dawley rat liver S9 fraction; format: toxicity, organism-based; settings: salmonella enterica subsp. enterica serovar typhimurium
[10] = Genotoxicity in Salmonella typhimurium TA1535/pSK1002 assessed as induction ratio at 5 mg/ml after 2 hrs by umuC assay in presence of Sprague-Dawley rat liver S9 fraction; format: toxicity, organism-based; settings: salmonella enterica subsp. enterica serovar typhimurium
[11] = Genotoxicity in Salmonella typhimurium TA1535/pSK1002 assessed as induction ratio at 0.156 mg/ml after 2 hrs by umuC assay in absence of Sprague-Dawley rat liver S9 fraction; format: toxicity, organism-based; settings: salmonella enterica subsp. enterica serovar typhimurium
[12] = Genotoxicity in Salmonella typhimurium TA1535/pSK1002 assessed as induction ratio at 0.3125 mg/ml after 2 hrs by umuC assay in absence of Sprague-Dawley rat liver S9 fraction; format: toxicity, organism-based; settings: salmonella enterica subsp. enterica serovar typhimurium
[13] = Genotoxicity in Salmonella typhimurium TA1535/pSK1002 assessed as induction ratio at 0.625 mg/ml after 2 hrs by umuC assay in absence of Sprague-Dawley rat liver S9 fraction; format: toxicity, organism-based; settings: salmonella enterica subsp. enterica serovar typhimurium
[14] = tested on: Salmonella typhimurium; test: Mutagenicity in Salmonella typhimurium TA98 at 0.156 mg/ml after 48 hrs by Ames MPF assay in presence of Sprague-Dawley rat liver S9 fraction; format: toxicity, organism-based; settings: salmonella enterica subsp. enterica serovar typhimurium, s9, 48 h
[15] = tested on: Salmonella typhimurium; test: Mutagenicity in Salmonella typhimurium TA98 at 0.3125 mg/ml after 48 hrs by Ames MPF assay in presence of Sprague-Dawley rat liver S9 fraction; format: toxicity, organism-based; settings: salmonella enterica subsp. enterica serovar typhimurium, s9, 48 h
[16] = tested on: Salmonella typhimurium; test: Mutagenicity in Salmonella typhimurium TA98 at 0.625 mg/ml after 48 hrs by Ames MPF assay in presence of Sprague-Dawley rat liver S9 fraction; format: toxicity, organism-based; settings: salmonella enterica subsp. enterica serovar typhimurium, s9, 48 h
[17] = tested on: Salmonella typhimurium; test: Mutagenicity in Salmonella typhimurium TA98 at 0.156 mg/ml after 48 hrs by Ames MPF assay in absence of Sprague-Dawley rat liver S9 fraction; format: toxicity, organism-based; settings: salmonella enterica subsp. enterica serovar typhimurium
[18] = tested on: Salmonella typhimurium; test: Mutagenicity in Salmonella typhimurium TA98 at 0.3125 mg/ml after 48 hrs by Ames MPF assay in absence of Sprague-Dawley rat liver S9 fraction; format: toxicity, organism-based; settings: salmonella enterica subsp. enterica serovar typhimurium
[19] = tested on: Salmonella typhimurium; test: Mutagenicity in Salmonella typhimurium TA98 at 1.25 mg/ml after 48 hrs by Ames MPF assay in absence of Sprague-Dawley rat liver S9 fraction; format: toxicity, organism-based; settings: salmonella enterica subsp. enterica serovar typhimurium
[20] = tested on: Nakaseomyces glabratus; test: Antifungal activity against clinical isolate Candida glabrata after 48 hrs by broth microdilution method; format: functional
[21] = tested on: Candida albicans; test: Antifungal activity against Candida albicans ATCC-90028 after 48 hrs by broth microdilution method; format: functional; settings: ATCC-90028, 48 h
[22] = tested on: [Candida] zeylanoides; test: Antifungal activity against Candida zeylanoides NRLL Y-1774 after 48 hrs by broth microdilution method; format: functional; settings: Dujonia zeylanoides, NRLL Y-1774, 48 h
[23] = tested on: Candida parapsilosis; test: Antifungal activity against Candida parapsilosis NRLL Y-12696 after 48 hrs by broth microdilution method; format: functional; settings: Lodderomyces parapsilosis, NRLL Y-12696, 48 h
[24] = tested on: Aspergillus flavus; test: Antifungal activity against Aspergillus flavus NRRL-980 after 72 hrs by broth microdilution method; format: functional; settings: NRRL-980, 72 h
[25] = tested on: Salmonella typhimurium; test: Genotoxicity in Salmonella typhimurium TA1535/pSK1002 assessed as growth factor at 0.156 mg/ml after 2 hrs by umuC assay in absence of Sprague-Dawley rat liver S9 fraction; format: toxicity, organism-based; settings: salmonella enterica subsp. enterica serovar typhimurium
[26] = tested on: Salmonella typhimurium; test: Genotoxicity in Salmonella typhimurium TA1535/pSK1002 assessed as growth factor at 0.3125 mg/ml after 2 hrs by umuC assay in absence of Sprague-Dawley rat liver S9 fraction; format: toxicity, organism-based; settings: salmonella enterica subsp. enterica serovar typhimurium
[27] = tested on: Salmonella typhimurium; test: Mutagenicity in Salmonella typhimurium TA98 at 5 mg/ml after 48 hrs by Ames MPF assay in absence of Sprague-Dawley rat liver S9 fraction; format: toxicity, organism-based; settings: salmonella enterica subsp. enterica serovar typhimurium
[28] = tested on: Salmonella typhimurium; test: Mutagenicity in Salmonella typhimurium TA100 at 0.3125 mg/ml after 48 hrs by Ames MPF assay in presence of Sprague-Dawley rat liver S9 fraction; format: toxicity, organism-based; settings: salmonella enterica subsp. enterica serovar typhimurium, s9, 48 h
[29] = tested on: Salmonella typhimurium; test: Mutagenicity in Salmonella typhimurium TA100 at 0.625 mg/ml after 48 hrs by Ames MPF assay in presence of Sprague-Dawley rat liver S9 fraction; format: toxicity, organism-based; settings: salmonella enterica subsp. enterica serovar typhimurium, s9, 48 h
[30] = tested on: Salmonella typhimurium; test: Mutagenicity in Salmonella typhimurium TA100 at 1.25 mg/ml after 48 hrs by Ames MPF assay in presence of Sprague-Dawley rat liver S9 fraction; format: toxicity, organism-based; settings: salmonella enterica subsp. enterica serovar typhimurium, s9, 48 h
[31] = tested on: Salmonella typhimurium; test: Mutagenicity in Salmonella typhimurium TA100 at 2.5 mg/ml after 48 hrs by Ames MPF assay in presence of Sprague-Dawley rat liver S9 fraction; format: toxicity, organism-based; settings: salmonella enterica subsp. enterica serovar typhimurium, s9, 48 h
[32] = tested on: Salmonella typhimurium; test: Mutagenicity in Salmonella typhimurium TA100 at 0.156 mg/ml after 48 hrs by Ames MPF assay in absence of Sprague-Dawley rat liver S9 fraction; format: toxicity, organism-based; settings: salmonella enterica subsp. enterica serovar typhimurium
[33] = tested on: Salmonella typhimurium; test: Mutagenicity in Salmonella typhimurium TA100 at 0.625 mg/ml after 48 hrs by Ames MPF assay in absence of Sprague-Dawley rat liver S9 fraction; format: toxicity, organism-based; settings: salmonella enterica subsp. enterica serovar typhimurium
[34] = tested on: Salmonella typhimurium; test: Mutagenicity in Salmonella typhimurium TA100 at 2.5 mg/ml after 48 hrs by Ames MPF assay in absence of Sprague-Dawley rat liver S9 fraction; format: toxicity, organism-based; settings: salmonella enterica subsp. enterica serovar typhimurium
[35] = Cytotoxicity against mouse NIH/3T3 cells after 24 hrs by XTT assay; format: cell-based; settings: NIH3T3, 24 h
[36] = tested on: A549; test: Cytotoxicity against human A549 cells after 24 hrs by XTT assay; format: functional, cell-based; settings: A549, 24 h

Row | MIC [1] | MIC [20] | Structure (SMILES) | Activity [2] | Activity [3] | Activity [4] | Activity [5] | Activity [6] | fold induction at 2 h, 0.156 mg/ml [7] | fold induction at 2 h, 0.3125 mg/ml [8] | fold induction at 2 h, 0.625 mg/ml [9] | fold induction at 2 h, 5 mg/ml [10] | fold induction at 2 h, 0.156 mg/ml [11] | fold induction at 2 h, 0.3125 mg/ml [12] | fold induction at 2 h, 0.625 mg/ml [13] | fold change (FC) [14] | fold change (FC) [15] | fold change (FC) [16] | fold change (FC) [17] | fold change (FC) [18] | fold change (FC) [19] | other results
1 | 250 µg/mL (≈ 732 µM) | 125 µg/mL (≈ 366 µM) | Fc1cccc(/C=N/NC(=S)Nc2cccc3ccccc23)c1F | 0.274 | 0.121 | 0.236 | 0.311 | 0.146 | 5.34 | 2.81 | 1.39 | 1.46 | 6 | 1.79 | 1.75 | 0.94 | 0.84 | 0.84 | 0.17 | 0 | 0.34 | MIC [21]: 250 µg/mL (≈ 732 µM); MIC [22]: 250 µg/mL (≈ 732 µM); MIC [23]: 250 µg/mL (≈ 732 µM); MIC [24]: 250 µg/mL (≈ 732 µM); Activity [25]: 0.14; Activity [26]: 0.115; fold change (FC) [27]: 0.34; fold change (FC) [28]: 1.07; fold change (FC) [29]: 0.92; fold change (FC) [30]: 0.68; fold change (FC) [31]: 0.58; fold change (FC) [32]: 0.48; fold change (FC) [33]: 0.42; fold change (FC) [34]: 0.18; IC50 [35]: > 500 µg/mL; IC50 [36]: 500 µg/mL (≈ 1460 µM)
2 | 250 µg/mL (≈ 732 µM) | 125 µg/mL (≈ 366 µM) | Fc1ccc(F)c(/C=N/NC(=S)Nc2cccc3ccccc23)c1 | 0.235 | 0.23 | 0.274 | 0.137 | 0.131 | 1.5 | 1.4 | 5.34 | 1.42 | 1.79 | 1.3 | 6 | 0.65 | 1.12 | 0.28 | 0.51 | 0 | 0.34 | MIC [21]: 250 µg/mL (≈ 732 µM); MIC [22]: 250 µg/mL (≈ 732 µM); MIC [23]: 250 µg/mL (≈ 732 µM); MIC [24]: 250 µg/mL (≈ 732 µM); Activity [25]: 0.142; Activity [26]: 0.168; fold change (FC) [27]: 0.17; fold change (FC) [28]: 0.34; fold change (FC) [29]: 0.44; fold change (FC) [30]: 0.44; fold change (FC) [31]: 0.48; fold change (FC) [32]: 0.6; fold change (FC) [33]: 0.18; fold change (FC) [34]: 0.48; IC50 [35]: > 500 µg/mL; IC50 [36]: 500 µg/mL (≈ 1460 µM)
